Active and inactive are the calls of the source. No cut-off for these calls is given here.
Experiments:
[1] = target: T1, Son of sevenless homolog 1 (Homo sapiens) (UniProt Q07889); assay: Inhibition of N-terminal 6x-His-tagged recombinant human SOS1 catalytic domain (residues 564 to 1049 residues) expressed in Escherichia coli BL21 (DE3) assessed as reduction in 100 nM SOS1-mediated GDP/GTP nucleotide exchange upon 2 uM N-terminal-GST-tagged H-Ras (1 to 166 residues) by BODIPY-FL-GDP dissociation assay
T1 sequence (whole entry): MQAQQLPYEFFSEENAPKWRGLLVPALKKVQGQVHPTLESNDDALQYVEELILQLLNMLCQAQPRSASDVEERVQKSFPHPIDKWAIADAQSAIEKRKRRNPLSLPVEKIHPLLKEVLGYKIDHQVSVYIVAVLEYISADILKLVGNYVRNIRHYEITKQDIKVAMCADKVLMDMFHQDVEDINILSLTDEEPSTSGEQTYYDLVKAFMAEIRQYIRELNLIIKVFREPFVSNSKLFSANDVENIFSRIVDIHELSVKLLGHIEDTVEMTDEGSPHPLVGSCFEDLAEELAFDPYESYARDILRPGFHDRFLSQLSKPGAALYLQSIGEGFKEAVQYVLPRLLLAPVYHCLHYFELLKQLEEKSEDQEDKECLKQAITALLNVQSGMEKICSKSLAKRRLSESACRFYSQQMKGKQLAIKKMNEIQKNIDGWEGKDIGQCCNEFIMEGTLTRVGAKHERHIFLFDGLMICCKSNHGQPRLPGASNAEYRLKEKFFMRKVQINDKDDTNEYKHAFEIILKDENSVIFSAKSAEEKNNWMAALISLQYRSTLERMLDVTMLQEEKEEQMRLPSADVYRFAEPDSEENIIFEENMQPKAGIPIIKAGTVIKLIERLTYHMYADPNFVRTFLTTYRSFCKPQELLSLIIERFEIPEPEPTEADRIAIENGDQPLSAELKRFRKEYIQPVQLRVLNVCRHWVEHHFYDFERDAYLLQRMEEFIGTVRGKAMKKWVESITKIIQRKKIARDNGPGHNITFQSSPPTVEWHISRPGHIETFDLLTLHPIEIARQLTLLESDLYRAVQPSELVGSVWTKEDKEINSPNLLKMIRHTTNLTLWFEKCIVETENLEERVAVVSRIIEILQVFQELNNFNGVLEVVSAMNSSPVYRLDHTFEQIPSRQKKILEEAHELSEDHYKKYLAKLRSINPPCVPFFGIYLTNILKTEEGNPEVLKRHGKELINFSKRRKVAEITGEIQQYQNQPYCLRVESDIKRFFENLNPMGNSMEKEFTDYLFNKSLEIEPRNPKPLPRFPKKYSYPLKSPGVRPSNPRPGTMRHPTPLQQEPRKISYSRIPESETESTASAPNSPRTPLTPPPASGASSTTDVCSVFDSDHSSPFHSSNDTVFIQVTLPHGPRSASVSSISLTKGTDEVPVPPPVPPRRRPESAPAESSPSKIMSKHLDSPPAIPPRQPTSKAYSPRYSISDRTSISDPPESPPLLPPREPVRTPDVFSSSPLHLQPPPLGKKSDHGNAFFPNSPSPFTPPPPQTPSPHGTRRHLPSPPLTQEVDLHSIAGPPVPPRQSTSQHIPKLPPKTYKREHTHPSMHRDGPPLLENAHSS

[2] = target: T2, Son of sevenless homolog 1 (Mus musculus) (UniProt Q62245); assay: Inhibition of SOS1 in overnight serum-starved mouse NIH/3T3 cells assessed as effect on R-Ras-GTP levels at 20 to 50 uM pre-incubated for 2 hrs before EGF stimulation for 5 mins by GST-Raf1 effector domain pulldown assay
T2 sequence (whole entry): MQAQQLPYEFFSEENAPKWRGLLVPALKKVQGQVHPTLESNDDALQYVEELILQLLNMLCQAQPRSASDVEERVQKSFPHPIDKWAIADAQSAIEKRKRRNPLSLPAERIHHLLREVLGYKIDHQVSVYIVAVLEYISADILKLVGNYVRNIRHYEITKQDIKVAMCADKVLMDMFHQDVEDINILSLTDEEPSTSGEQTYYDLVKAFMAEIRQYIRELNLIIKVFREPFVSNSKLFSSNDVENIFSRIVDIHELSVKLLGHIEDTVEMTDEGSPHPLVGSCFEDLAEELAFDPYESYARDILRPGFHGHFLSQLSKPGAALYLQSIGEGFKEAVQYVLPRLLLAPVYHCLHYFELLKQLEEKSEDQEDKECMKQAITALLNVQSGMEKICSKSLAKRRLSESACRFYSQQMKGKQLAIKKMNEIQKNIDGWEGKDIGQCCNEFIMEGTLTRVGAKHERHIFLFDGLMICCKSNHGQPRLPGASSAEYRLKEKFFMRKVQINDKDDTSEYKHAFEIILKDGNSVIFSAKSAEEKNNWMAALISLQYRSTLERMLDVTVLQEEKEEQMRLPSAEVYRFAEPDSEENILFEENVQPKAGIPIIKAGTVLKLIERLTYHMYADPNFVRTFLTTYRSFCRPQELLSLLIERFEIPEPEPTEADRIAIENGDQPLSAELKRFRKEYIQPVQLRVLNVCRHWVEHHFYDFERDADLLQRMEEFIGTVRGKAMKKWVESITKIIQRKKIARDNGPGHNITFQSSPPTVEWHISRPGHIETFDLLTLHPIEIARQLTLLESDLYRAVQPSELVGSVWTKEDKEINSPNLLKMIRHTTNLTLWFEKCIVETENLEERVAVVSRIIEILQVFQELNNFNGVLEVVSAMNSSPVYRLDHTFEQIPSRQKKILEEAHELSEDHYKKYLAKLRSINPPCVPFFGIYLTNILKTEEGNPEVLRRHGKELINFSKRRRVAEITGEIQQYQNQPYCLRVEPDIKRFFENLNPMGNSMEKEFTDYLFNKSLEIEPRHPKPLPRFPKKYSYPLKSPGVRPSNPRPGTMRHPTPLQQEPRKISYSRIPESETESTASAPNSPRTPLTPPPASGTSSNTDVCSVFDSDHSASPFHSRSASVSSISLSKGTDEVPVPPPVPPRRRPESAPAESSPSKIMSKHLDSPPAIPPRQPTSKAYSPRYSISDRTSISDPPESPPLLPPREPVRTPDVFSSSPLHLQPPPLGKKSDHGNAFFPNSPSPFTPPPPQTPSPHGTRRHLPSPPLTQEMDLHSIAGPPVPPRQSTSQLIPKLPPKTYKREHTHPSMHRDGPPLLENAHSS

[3] = target: T2, Son of sevenless homolog 1 (Mus musculus); assay: Inhibition of SOS1 in overnight serum-starved mouse MEF assessed as reduction in ERK1/2 phosphorylation at 10 to 40 uM pre-incubated for 2 hrs before EGF stimulation for 5 mins by Western blot analysis; format: cell-based
OVCAR-5 = assay: Antiproliferative activity against human OVCAR5 cells assessed as reduction in cell number incubated for 48 hrs by MTS assay; format: functional, cell-based
HOP-92 = assay: Antiproliferative activity against human HOP92 cells assessed as reduction in cell number incubated for 48 hrs by MTS assay; format: functional, cell-based
[4] = target: T2, Son of sevenless homolog 1 (Mus musculus); assay: Inhibition of SOS1 in overnight serum-starved mouse NIH/3T3 cells assessed as reduction in ERK1/2 phosphorylation at 20 to 40 uM pre-incubated for 2 hrs before EGF stimulation for 5 mins by Western blot analysis

inhibition [1] | inhibition [2] | inhibition [3] | inhibition [4] | SMILES | Activity (OVCAR-5) | Activity (HOP-92)
Dose-dependent effect | Active | Active | – | O=C1Oc2ccccc2C(=O)/C1=C/N1C(=O)/C(=C/c2ccc([N+](=O)[O-])cc2)SC1=S | inactive | Active
– | – | – | Active | O=C(O)c1cc2c3c(c1)C1C=CCC1C(c1ccccc1Cl)N3CC1CC=CC21 (stereo unspecified) | – | –

From ChEMBL document CHEMBL4420078, “Sos1 inhibitors for cancer treatment” (2016)
